Data on two compounds can be found in ChEMBL document CHEMBL1152103, “U-87947E, a protein quinolone antibacterial agent incorporating a bicyclo[1.1.1]pent-1-yl (BCP) subunit” (1993).

Molecules are shown by their SMILES. ≈ marks a conversion by molar mass, not a printed value.

Assay type in all cases: functional
One assay has as its system Bacteroides fragilis. Put plainly: The compound was tested for its antibacterial activity against Bacteroides fragilis (12 strains).
The next assay deals with Enterococcus faecalis. Put plainly: The compound was tested for its antibacterial activity against Enterococcus faecalis (10 strains).
The test system of the next assay is Escherichia coli. Description: The compound was tested for its antibacterial activity against Escherichia coli (21 strains).
In the next assay the test system is Haemophilus influenzae. Put plainly: The compound was tested for its antibacterial activity against Haemophilus influenzae (10 strains).
For another assay, the system named is Pseudomonas aeruginosa. Put plainly: The compound was tested for its antibacterial activity against Pseudomonas aeruginosa (20 strains).
The test system of assay [1] is Staphylococcus aureus. Put plainly: The compound was tested for its antibacterial activity against Staphylococcus aureus (12 strains).
The subject of assay [2] is Staphylococcus aureus. Put plainly: The compound was tested for its antibacterial activity against Staphylococcus aureus, ciprofloxacin resistant (14 strains).
The next assay relates to Streptococcus pneumoniae. Description: The compound was tested for its antibacterial activity against Streptococcus pneumoniae (10 strains), expressed as MIC90.
For a further assay, the system named is Streptococcus pyogenes. Put plainly: The compound was tested for its antibacterial activity against Streptococcus pyogenes (10 strains).

In the case of `CS(=O)(=O)O.C[C@H]1CN(c2c(F)cc3c(=O)c(C(=O)O)cn(C45CC(C4)C5)c3c2F)C[C@H]1CN`, the MIC90 against Bacteroides fragilis was 1 µg/mL; in the assay with Enterococcus faecalis it was 0.25 µg/mL; against Escherichia coli, 0.125 µg/mL; against Haemophilus influenzae, 0.06 µg/mL; with Pseudomonas aeruginosa it was 8 µg/mL; against Staphylococcus aureus [1] it was 0.125 µg/mL. Besides, the MIC90 against Staphylococcus aureus [2] was 0.5 µg/mL; against Streptococcus pneumoniae it was 0.125 µg/mL; in the assay on Streptococcus pyogenes, 0.125 µg/mL.

For `O=C(O)c1cn(C2CC2)c2cc(N3CCNCC3)c(F)cc2c1=O` [CIPROFLOXACIN], the MIC90 with Bacteroides fragilis came out at 8 µg/mL (≈ 24.1 µM); with Enterococcus faecalis, 2 µg/mL (≈ 6.04 µM); against Escherichia coli, 0.03 µg/mL (≈ 0.0905 µM); against Haemophilus influenzae it was 0.015 µg/mL (≈ 0.0453 µM); against Pseudomonas aeruginosa, 2 µg/mL (≈ 6.04 µM); with Staphylococcus aureus [1], 1 µg/mL (≈ 3.02 µM). Also, the MIC90 was > 16 µg/mL with Staphylococcus aureus [2], 1 µg/mL (≈ 3.02 µM) with Streptococcus pneumoniae and 0.5 µg/mL (≈ 1.51 µM) in the assay with Streptococcus pyogenes.
